Test results published in US12595449B2, “Integrated system for 3D tissue culture” (Valo Health, Inc., priority 2020, dated 2026).

Tested on: human engineered cardiac tissues (human iPSC derived cardiomyocytes co-cultured with human cardiac fibroblasts)
Experiment: Drug testing with electrical stimulation of engineered cardiac tissues in the Biowire II 96-well plate (contractile dynamics from polymer wire displacement)
Type: cell-based
Details: thapsigargin 50×10^−6 m, n=2; for frequency of tissue beating: constant stimulation frequency 1.5 Hz, day 19, video after 15 min; for tissue contraction and relaxation time: electrical pacing 1.5 Hz, day 19 (after 12 days of electrical stimulation), video after 15 min
Procedure: To generate cardiac tissues, human iPSC derived cardiomyocytes co-cultured with human cardiac fibroblasts were seeded with hydrogel in the 96-well plate device. Tissue compaction in the first seven days was observed (FIG. 7A, FIG. 7B), with dramatic change in the first two days followed by stabilization after day 3. Electrical field stimulation of cardiac tissues was initiated at day 7 and continued for the additional 12 days. […] Thapsigargin (50×10^-6 m), an inhibitor of sarcoplasmic reticulum function in cardiomyocytes, was added in the presence of electrical pacing (1.5 Hz), resulting in a prolonged tissue contraction and relaxation time (FIG. 7H). […] Predominantly ventricular cardiomyocytes (CMs) were derived from the hiPSC line BJ1D, using monolayer differentiation protocols as previously described. At day 21 of differentiation, cardiomyocytes were disassociated into single cells with previously established methods. Briefly, 1 mg mL^-1 of collagenase type II (Worthington, LS004205) in Hank's Balanced Salt Solution was added to the monolayer cardiomyocyte cultures and incubated overnight at room temperature. The disassociated cells were mixed with cardiac fibroblasts (Lonza, NHCF-V) in a 10:1 cell number ratio. The mixed cells were pelleted and remixed in collagen hydrogel at 5.5×10^7 cells mL^-1. The cell-gel mixture was seeded at […] per microwell. A droplet of media was placed on the wall of the well to keep the moisture until gelation was complete. The plate was incubated at 37° C. and 5% CO2 for 10 min followed by media addition. After seeding (day 0), the tissues were cultured for seven days to allow remodeling around the POMaC wires. Bright field images of the tissues were taken daily to monitor tissue morphology. By day 7, the tissues synchronously contracted and deflected the POMaC wire with each contraction. SpectraMax […] 300 Imaging Cytometer was used to image tissues in the well plate to monitor the daily morphology changes of tissues. Nine pictures were taken in each well of the 96-well plate and automatically stitched together to show the entire view of the well. […] Average tissue width and width of the tissue (Tw), attachment site to the polymer sensor were measured using bright field images at the relaxed state. Passive displacement of polymer sensors was assessed in blue channel. […] The final readouts for the total and passive forces were interpolated according to the Tw and custom tip sizes. […] With built-in force sensor and electrodes, tissues were able to be assessed in situ in terms of their contractile dynamics and drug responses. […] The videos were analyzed using the custom MATLAB software. […]

C/C=C(/C)C(=O)O[C@H]1C(C)=C2[C@H]([C@@H]1OC(=O)CCCCCCC)[C@@](C)(OC(C)=O)C[C@H](OC(=O)CCC)[C@@]1(O)[C@H]2OC(=O)[C@@]1(C)O [Thapsigargin]
frequency of tissue beating: decreased by half
frequency of tissue beating (listed as thapsigargin): reduced by half
tissue contraction and relaxation time: prolonged
tissue contraction and relaxation time (listed as thapsigargin): slowed
